# Values quoted from earlier work, collected in US20110052581A1 (Poniard Pharmaceuticals Inc., priority 2008, published 2011).
# Tested on: patients with advanced colorectal cancer
# Details: single agent therapy
structure (smiles),measurement,value
O=C1[O][Pt]2([NH][C@@H]3CCCC[C@H]3[NH]2)[O]C1=O [oxaliplatin],progression-free survival (median),4.0 months
same,response rate,12%
CCc1c2c(nc3ccc(OC(=O)N4CCC(N5CCCCC5)CC4)cc13)-c1cc3c(c(=O)n1C2)COC(=O)[C@]3(O)CC [irinotecan],median survival,~12 months
same,progression-free survival (median),4.3 months
same,response rate,18%
